The source of these data is patent US20230365554A1, “SUBSTITUTED PYRROLO-PYRIDINONE DERIVATIVES AND THERAPEUTIC USES THEREOF” (The Broad Institute, Inc., priority 2020, published 2023).

The target of experiment [1] is human CSNK1A1 (Homo sapiens (Human), UniProt P48729). The experiment in a line: CSNK1A1 Assay 2 (ADP-Glo, 1 μM ATP). Format: biochemical. As to conditions: median, Table 2, read-out: CSNK1A1 Assay 2 IC50 [mol/l] (median). As to the method: CSNK1A1-inhibitory activity of compounds of the present invention in presence of 1 μM adenosine-tri-phosphate (ATP) was quantified employing the CSNK1A1 assay as described in the following paragraphs. In essence, the enzyme activity is measured by quantification of the adenosine-di-phosphate (ADP), which is generated as a co-product of the enzyme reaction, via the “ADP-Glo™ Kinase Assay” kit from the company Promega. This detection system works as follows: In a first step the ATP not consumed in the kinase reaction is quantitatively converted to cAMP employing an adenylate cyclase (“ADP-Glo-reagent”), then the adenylate cyclase is stopped and the ADP generated in the kinase reaction converted to ATP which generates in a luciferase-based reaction a glow-luminescence signal (“Kinase Detection Reagent”).
Recombinant fusion protein of N-terminal Glutathion-S-Transferase (GST) and full-length human CSNK1A1, expressed by baculovirus infected insect cells and purified via Glutathion affinity chromatography, was purchased from Life Technologies (product no. PV4174) and used as enzyme. As substrate for the kinase reaction the biotinylated peptide biotin-Ahx-KRRRAL-pS-VASLPGL (C-terminus in amide form) was used which can be purchased e.g. from the company Biosyntan (Berlin-Buch, Germany).
For the assay 50 nl of a 100 fold concentrated solution of the test compound in DMSO was pipetted into a white 1536-well microtiter plate (Greiner Bio-One, Frickenhausen, Germany), 2 μL of a solution of CSNK1A1 in aqueous assay buffer [50 mM HEPES pH 7.5, 10% (v/v) glycerol, 10 mM MgCl2, 50 mM NaCl, 1 mM dithiothreitol, 0.01% (w/v) bovine serum albumin, 0.01% (v/v) Triton X-100] were added and the mixture was incubated for 15 min at 22° C. to allow pre-binding of the test compounds to the enzyme before the start of the kinase reaction. Then the kinase reaction was started by the addition of 3 μL of a solution of ATP (1.67 μM=>final conc. in the 5 μL assay volume is 1 μM) and peptide substrate (50 μM=>final conc. in the 5 μL assay volume is 30 μM) in assay buffer and the resulting mixture was incubated for a reaction time of 30 min at 22° C. The concentration of CSNK1A1 was adjusted depending of the activity of the enzyme lot and was chosen appropriate to have the assay in the linear range, a typical concentrations are about 0.0375 ng/μL. The reaction was stopped by the addition of 2.5 μL of “ADP-Glo-reagent” (1:1.5 fold diluted with water) and the resulting mixture was incubated at 22° C. for 1 h to convert the ATP not consumed in the kinase reaction completely […]. Subsequently 2.5 μL of the “kinase detection reagent” (1.2 fold more concentrated than recommended by the producer) were added, the resulting mixture was incubated at 22° C. for 1 h and then the luminescence measured with a suitable measurement instrument (e.g. Viewlux™ from Perkin-Elmer). The amount of emitted light was taken as a measure for the amount of ADP generated and thereby for the activity of the CSNK1A1.
(§1) The data were normalised (enzyme reaction without inhibitor=0% inhibition, all other assay components but no enzyme=100% inhibition).
Background: In ADP-Glo the light output rises with the ADP produced.

For experiment [2], the target named is human CSNK1D (Homo sapiens (Human), UniProt P48730). The experiment in a line: CSNK1D assay (ADP-Glo, 1 μM ATP). It counts as biochemical. As to conditions: median, Table 2, read-out: CSNK1D IC50 [mol/l] (median). As to the method: CSNK1D-inhibitory activity of compounds of the present invention in presence of 1 μM adenosine-tri-phosphate (ATP) was quantified employing the CSNK1D assay as described in the following paragraphs. In essence, the enzyme activity is measured by quantification of the adenosine-di-phosphate (ADP), which is generated as a co-product of the enzyme reaction, via the “ADP-Glo™ Kinase Assay” kit from the company Promega. This detection system works as follows: In a first step the ATP not consumed in the kinase reaction is quantitatively converted to cAMP employing an adenylate cyclase (“ADP-Glo-reagent”), then the adenylate cyclase is stopped and the ADP generated in the kinase reaction converted to ATP which generates in a luciferase-based reaction a glow-luminescence signal (“Kinase Detection Reagent”).
Recombinant fusion protein of N-terminal Glutathion-S-Transferase (GST) and full-length human CSNK1D, expressed by baculovirus infected insect cells and purified via Glutathion affinity chromatography, was purchased from Life Technologies (product no. PV3665) and used as enzyme. As substrate for the kinase reaction the biotinylated peptide Btn-Ahx-SGSEGDSESGEEEG (C-terminus in amide form) was used which can be purchased e.g. from the company Biosyntan (Berlin-Buch, Germany).
For the assay 50 nl of a 100 fold concentrated solution of the test compound in DMSO was pipetted into a white 1536-well microtiter plate (Greiner Bio-One, Frickenhausen, Germany), 2 μL of a solution of CSNK1D in aqueous assay buffer [50 mM HEPES pH 7.5, 10% (v/v) glycerol, 10 mM MgCl2, 50 mM NaCl, 1 mM dithiothreitol, 0.01% (w/v) bovine serum albumin, 0.01% (v/v) Triton X-100] were added and the mixture was incubated for 15 min at 22° C. to allow pre-binding of the test compounds to the enzyme before the start of the kinase reaction. Then the kinase reaction was started by the addition of 3 μL of a solution of ATP (1.67 μM=>final conc. in the 5 μL assay volume is 1 μM) and peptide substrate (50 μM=>final conc. in the 5 μL assay volume is 30 μM) in assay buffer and the resulting mixture was incubated for a reaction time of 30 min at 22° C. The concentration of CSNK1D was adjusted depending of the activity of the enzyme lot and was chosen appropriate to have the assay in the linear range, a typical concentration is about 0.5 ng/μL. The reaction was stopped by the addition of 2.5 μL of “ADP-Glo-reagent” (1:1.5 fold diluted with water) and the resulting mixture was incubated at 22° C. for 1 h to convert the ATP not consumed in the kinase reaction completely […]. Subsequently 2.5 μL of the “kinase detection reagent” (1.2 fold more concentrated than recommended by the producer) were added, the resulting mixture was incubated at 22° C. for 1 h and then the luminescence measured with a suitable measurement instrument (e.g. Viewlux™ from Perkin-Elmer). The amount of emitted light was taken as a measure for the amount of ADP generated and thereby for the activity of the CSNK1D.
as §1

human CSNK1D, sequence (P48730 whole entry): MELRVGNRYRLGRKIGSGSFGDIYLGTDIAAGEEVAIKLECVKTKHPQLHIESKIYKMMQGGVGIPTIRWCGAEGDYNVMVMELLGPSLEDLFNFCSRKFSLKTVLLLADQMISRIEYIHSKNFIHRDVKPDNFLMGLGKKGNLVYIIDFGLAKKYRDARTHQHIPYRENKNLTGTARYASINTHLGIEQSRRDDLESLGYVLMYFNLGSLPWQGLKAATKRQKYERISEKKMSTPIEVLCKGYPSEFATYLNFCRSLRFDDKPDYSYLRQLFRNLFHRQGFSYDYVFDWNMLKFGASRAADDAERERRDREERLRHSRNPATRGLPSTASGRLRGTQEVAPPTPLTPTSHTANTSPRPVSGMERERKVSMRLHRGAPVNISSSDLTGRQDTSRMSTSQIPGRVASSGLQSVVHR
human CSNK1A1, sequence (P48729 whole entry): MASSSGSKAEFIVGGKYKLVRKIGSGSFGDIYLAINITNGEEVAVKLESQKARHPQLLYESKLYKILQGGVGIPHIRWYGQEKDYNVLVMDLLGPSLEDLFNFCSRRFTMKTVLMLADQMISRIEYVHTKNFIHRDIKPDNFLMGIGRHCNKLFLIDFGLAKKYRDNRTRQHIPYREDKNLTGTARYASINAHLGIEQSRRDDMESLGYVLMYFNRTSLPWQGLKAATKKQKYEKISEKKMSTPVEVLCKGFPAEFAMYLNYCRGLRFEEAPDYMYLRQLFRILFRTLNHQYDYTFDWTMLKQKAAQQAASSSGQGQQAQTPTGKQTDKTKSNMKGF

On to `Cn1cc(CC(F)(F)F)c2[nH]c(-c3ccnc(NC(=O)C(CC(F)F)c4ccc(F)cc4)c3)c(Nc3ccccc3)c2c1=O` (racemic) [Example 35, N-{4-[3-anilino-5-methyl-4-oxo-7-(2,2,2-trifluoroethyl)-4,5-dihydro-1H-pyrrolo[3,2-c]pyridin-2-yl]pyridin-2-yl}-4,4-difluoro-2-(4-fluorophenyl)butanamide], for which the IC50 in experiment [1] came to 8 nM; in experiment [2] it was 5.9 nM.
